According to patent publication US12492188B2, “1H-benzo[D]imidazole derivatives as TLR9 inhibitors for the treatment of fibrosis” (BRISTOL-MYERS SQUIBB COMPANY, priority 2020, dated 2025):
Read-outs that look alike come from different tables or passages of the source.

What was measured:
Assay type in all cases: cell-based
[1] = target: T1, human TLR9 (Homo sapiens, UniProt Q9NR96); experiment: TLR9 inhibition reporter assay (HEK-Blue cells, secreted embryonic alkaline phosphatase reporter)
T1 construct: host or cells: HEK-Blue cells (HEK293-derived reporter line)
T1 sequence (Q9NR96 26-1032): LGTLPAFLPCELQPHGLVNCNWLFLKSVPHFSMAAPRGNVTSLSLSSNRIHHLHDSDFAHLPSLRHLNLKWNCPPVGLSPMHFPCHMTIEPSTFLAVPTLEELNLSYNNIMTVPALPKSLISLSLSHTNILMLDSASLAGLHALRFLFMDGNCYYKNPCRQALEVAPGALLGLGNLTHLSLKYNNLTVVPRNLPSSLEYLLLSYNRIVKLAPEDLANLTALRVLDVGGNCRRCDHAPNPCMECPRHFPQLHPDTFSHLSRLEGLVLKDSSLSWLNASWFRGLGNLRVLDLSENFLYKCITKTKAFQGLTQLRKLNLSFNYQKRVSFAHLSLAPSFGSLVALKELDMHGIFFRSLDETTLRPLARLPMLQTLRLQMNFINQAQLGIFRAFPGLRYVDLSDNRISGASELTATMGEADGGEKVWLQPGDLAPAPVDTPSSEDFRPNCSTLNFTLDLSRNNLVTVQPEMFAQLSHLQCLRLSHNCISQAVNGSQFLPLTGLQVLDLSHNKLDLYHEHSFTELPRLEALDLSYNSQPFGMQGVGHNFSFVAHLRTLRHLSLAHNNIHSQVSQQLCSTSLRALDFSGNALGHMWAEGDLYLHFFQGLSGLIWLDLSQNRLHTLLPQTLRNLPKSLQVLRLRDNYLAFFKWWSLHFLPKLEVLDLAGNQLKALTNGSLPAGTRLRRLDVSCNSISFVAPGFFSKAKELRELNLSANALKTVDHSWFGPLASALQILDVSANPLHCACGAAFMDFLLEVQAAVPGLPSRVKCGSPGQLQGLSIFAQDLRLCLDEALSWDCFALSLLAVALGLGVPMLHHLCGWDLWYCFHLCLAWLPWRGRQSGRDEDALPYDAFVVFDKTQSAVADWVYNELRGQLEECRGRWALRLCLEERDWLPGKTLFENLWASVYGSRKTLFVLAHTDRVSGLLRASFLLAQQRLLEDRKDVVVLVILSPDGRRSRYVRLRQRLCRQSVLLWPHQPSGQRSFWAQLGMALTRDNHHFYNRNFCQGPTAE
How it was run: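 Inhibitors are tested in dose response (0.05 nM–50 μM) on HEK-Blue reporter cells expressing human TLR7, TLR8 or TLR9. After 30 min at room temperature, each line is stimulated with its own agonist (gardiquimod 7.5 μM, R848 15.9 μM or ODN2006 5 nM, final) and SEAP is measured 22 h later.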

[2] = target: T2, human TLR7 (Homo sapiens, UniProt Q9NYK1); experiment: TLR7 inhibition reporter assay (HEK-Blue cells, secreted embryonic alkaline phosphatase reporter); conditions: HEK-Blue cells overexpressing human TLR7, stimulated with gardiquimod 7.5 μM; read-out: TLR 7 IC50
T2 construct: host or cells: HEK-Blue cells (HEK293-derived reporter line)
T2 sequence (Q9NYK1 27-1049): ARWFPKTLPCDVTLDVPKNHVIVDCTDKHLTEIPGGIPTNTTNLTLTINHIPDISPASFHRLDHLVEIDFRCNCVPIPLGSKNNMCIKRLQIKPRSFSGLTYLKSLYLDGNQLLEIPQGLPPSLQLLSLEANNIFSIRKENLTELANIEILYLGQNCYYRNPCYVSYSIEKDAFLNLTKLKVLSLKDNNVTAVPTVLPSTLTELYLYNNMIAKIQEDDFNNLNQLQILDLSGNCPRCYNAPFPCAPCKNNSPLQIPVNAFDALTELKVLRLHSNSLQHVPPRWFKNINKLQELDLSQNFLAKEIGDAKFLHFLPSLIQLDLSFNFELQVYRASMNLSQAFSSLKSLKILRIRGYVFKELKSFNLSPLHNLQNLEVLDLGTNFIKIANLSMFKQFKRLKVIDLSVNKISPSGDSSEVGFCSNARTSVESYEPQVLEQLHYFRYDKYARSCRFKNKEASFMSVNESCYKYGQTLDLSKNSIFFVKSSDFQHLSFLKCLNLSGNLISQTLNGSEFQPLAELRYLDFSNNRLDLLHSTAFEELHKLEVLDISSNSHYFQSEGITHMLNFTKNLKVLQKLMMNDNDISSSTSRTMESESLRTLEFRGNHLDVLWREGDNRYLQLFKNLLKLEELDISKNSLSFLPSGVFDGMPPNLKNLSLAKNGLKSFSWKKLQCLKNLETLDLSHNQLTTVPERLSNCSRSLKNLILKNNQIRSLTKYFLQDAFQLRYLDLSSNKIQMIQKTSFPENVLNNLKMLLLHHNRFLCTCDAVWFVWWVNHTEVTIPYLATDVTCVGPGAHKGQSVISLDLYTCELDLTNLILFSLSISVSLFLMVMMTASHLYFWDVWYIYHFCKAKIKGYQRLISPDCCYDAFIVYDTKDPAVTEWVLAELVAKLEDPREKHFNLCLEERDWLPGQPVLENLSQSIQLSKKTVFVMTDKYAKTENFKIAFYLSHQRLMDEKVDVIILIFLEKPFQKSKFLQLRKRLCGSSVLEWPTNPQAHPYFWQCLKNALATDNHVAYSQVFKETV
Experimental: (§1) TLR7/8/9 Inhibition Reporter Assays
(§2) HEK-Blue™-cells (Invivogen) overexpressing human TLR7, TLR8 or TLR9 receptors were used for screening inhibitors of these receptors using an inducible SLAP (secreted embryonic alkaline phosphatase) reporter gene under the control of the […] minimal promoter fused to five NF-κB and AP-1-binding sites. Briefly, cells are seeded into Greiner 384 well plates (15000 cells per well for TLR7, 20,000 for TLR8 and 25,000 for TLR9) and then treated with test compounds in DMSO to yield a final dose response concentration range of 0.05 nM-50 μM. After a 30 minute compound pre-treatment at room temperature, the cells are then stimulated with a TLR7 ligand (gardiquimod at a final concentration of 7.5 μM), TLR8 ligand (R848 at a final concentration of 15.9 μM) or TLR9 ligand (ODN2006 at a final concentration of 5 nM) to activate NF-κB and AP-1 which induce the production of SLAP. After a 22 hour incubation at 37° C., […], SLAP levels are determined with the addition of HEK-Blue™ Detection reagent (Invivogen), a cell culture medium that allows for detection of SLAP, according to manufacturer's specifications. The percent inhibition is determined as the […] in the HEK-Blue signal present in wells treated with agonist plus DMSO alone compared to wells treated with a known inhibitor.

[3] = target: T3, human TLR8 (Homo sapiens, UniProt Q9NR97); experiment: TLR8 inhibition reporter assay (HEK-Blue cells, secreted embryonic alkaline phosphatase reporter); conditions: HEK-Blue cells overexpressing human TLR8, stimulated with R848 15.9 μM; read-out: TLR 8 IC50
T3 construct: host or cells: HEK-Blue cells (HEK293-derived reporter line)
T3 sequence (Q9NR97 27-1041): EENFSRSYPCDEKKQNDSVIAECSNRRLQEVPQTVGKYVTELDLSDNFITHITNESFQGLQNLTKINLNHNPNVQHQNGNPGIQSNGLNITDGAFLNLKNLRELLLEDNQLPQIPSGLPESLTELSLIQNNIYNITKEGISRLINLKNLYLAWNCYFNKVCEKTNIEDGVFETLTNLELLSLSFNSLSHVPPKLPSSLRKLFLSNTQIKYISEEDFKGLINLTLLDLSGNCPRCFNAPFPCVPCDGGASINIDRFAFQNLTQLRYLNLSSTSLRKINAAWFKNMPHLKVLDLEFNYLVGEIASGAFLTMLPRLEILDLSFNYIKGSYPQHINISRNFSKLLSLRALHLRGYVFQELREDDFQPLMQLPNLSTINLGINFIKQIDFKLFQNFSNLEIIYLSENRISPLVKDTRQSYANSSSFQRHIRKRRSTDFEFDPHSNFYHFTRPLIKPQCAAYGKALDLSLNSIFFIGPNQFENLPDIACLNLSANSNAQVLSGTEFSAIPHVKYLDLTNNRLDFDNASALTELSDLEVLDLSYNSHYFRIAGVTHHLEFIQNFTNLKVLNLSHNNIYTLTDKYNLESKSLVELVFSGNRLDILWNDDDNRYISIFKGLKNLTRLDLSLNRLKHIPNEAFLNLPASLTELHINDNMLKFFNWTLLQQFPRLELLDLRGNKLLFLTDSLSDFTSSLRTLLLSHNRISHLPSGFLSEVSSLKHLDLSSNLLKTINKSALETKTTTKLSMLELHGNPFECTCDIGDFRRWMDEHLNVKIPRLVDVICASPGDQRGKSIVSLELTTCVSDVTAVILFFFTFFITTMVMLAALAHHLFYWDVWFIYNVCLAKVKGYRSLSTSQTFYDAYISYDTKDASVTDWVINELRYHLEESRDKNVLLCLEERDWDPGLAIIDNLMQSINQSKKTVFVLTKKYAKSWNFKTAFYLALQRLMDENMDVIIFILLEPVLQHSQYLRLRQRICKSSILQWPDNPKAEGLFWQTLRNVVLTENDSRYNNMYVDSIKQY
Experimental: as §1, §2

[4] = HEK-Blue cells overexpressing human TLR9, stimulated with ODN2006 5 nM, read-out: TLR 9 IC50
[5] = HEK-Blue human TLR9 reporter cells
[6] = HEK-Blue cells overexpressing human TLR9, stimulated with ODN2006 5 nM, 22 hour incubation, reporter readout

Row | Structure (SMILES) | IC50 [1, 4] | IC50 [1, 5] | IC50 [2] | IC50 [3] | IC50 [1, 6] | IC50 [1]
1 | CC(C)N1CCCC(N2CCC(c3cc(F)c4nc(-c5ccc(S(C)(=O)=O)cc5)n(C)c4c3)CC2)CC1 (single isomer, unassigned) [Example 294, 4-fluoro-6-(1-(1-isopropylazepan-4-yl)piperidin-4-yl)-1-methyl-2-(4-(methylsulfonyl)phenyl)-1H-benzo[d]imidazole] | 55 nM | 55 nM | 2300 nM | > 50000 nM |  | 
2 | Cn1c(-c2ccc(S(C)(=O)=O)cc2)nc2ccc(C3CCN(C4CC5CCC(C4)N5C4COC4)CC3)c(F)c21 (stereo not drawn) [Example 272, 7-fluoro-1-methyl-2-(4-(methylsulfonyl)phenyl)-6-(1-(8-(oxetan-3-yl)-8-azabicyclo[3.2.1]octan-3-yl)piperidin-4-yl)-1H-benzo[d]imidazole] | 600 nM |  |  | > 50000 nM |  | 
3 | Cc1cc(-c2ccc(CN3CCC(N4CCCC4)CC3)c(F)c2)cc2c1nc(-c1ccc(S(C)(=O)=O)cc1)n2C [Example 387, 6-(3-fluoro-4-((4-(pyrrolidin-1-yl)piperidin-1-yl)methyl)phenyl)-1,4-dimethyl-2-(4-(methylsulfonyl)phenyl)-1H-benzo[d]imidazole] | 56 nM |  |  | 7300 nM | 56 nM | 
4 | COc1ccc(-c2nc3cc(C4CCN(C5CCN(C6CC6)CC5)CC4)ccc3n2C)cc1OC [Example 35, 5-(1′-cyclopropyl-[1,4′-bipiperidin]-4-yl)-2-(3,4-dimethoxyphenyl)-1-methyl-1H-benzo[d]imidazole] | 852 nM |  |  | > 50000 nM | 850 nM | 
5 | Cn1c(-c2ccc(S(C)(=O)=O)cc2)nc2c(F)cc(C3CCN(C4CC5CCC(C4)N5C4COC4)CC3)cc21 (stereo not drawn) [Example 287, 4-fluoro-1-methyl-2-(4-(methylsulfonyl)phenyl)-6-(1-(8-(oxetan-3-yl)-8-azabicyclo[3.2.1]octan-3-yl)piperidin-4-yl)-1H-benzo[d]imidazole] | 104 nM | 100 nM |  | > 50000 nM |  | 
6 | Cn1c(-c2ccc(S(C)(=O)=O)cc2)nc2ccc(C3CCN(C4CCN(C5COC5)CC4)CC3)c(F)c21 [Example 263, 7-fluoro-1-methyl-2-(4-(methylsulfonyl)phenyl)-6-(1′-(oxetan-3-yl)-[1,4′-bipiperidin]-4-yl)-1H-benzo[d]imidazole] | 1770 nM |  | 11900 nM |  |  | 1800 nM
7 | COc1cc(-c2nc3c(C)cc(C4CCN(C5CC6CCC(C5)N6CC(C)C)CC4)cc3n2C)cn2ncnc12 (stereo not drawn) [Example 126, 6-(6-(1-(8-isobutyl-8-azabicyclo[3.2.1]octan-3-yl)piperidin-4-yl)-1,4-dimethyl-1H-benzo[d]imidazol-2-yl)-8-methoxy-[1,2,4]triazolo[1,5-a]pyridine] | 588 nM |  |  | 4500 nM | 590 nM | 
8 | Cc1cc(-c2ccc(CN3CCCC3)cc2)cc2c1nc(-c1ccc(S(C)(=O)=O)cc1)n2C [Example 395, 1,4-dimethyl-2-(4-(methylsulfonyl)phenyl)-6-(4-(pyrrolidin-1-ylmethyl)phenyl)-1H-benzo[d]imidazole] | 1360 nM |  | 11200 nM |  | 1400 nM | 
9 | Cc1cc(-c2ccc(CN3C[C@@H]4CN(C(C)C)C[C@@H]4C3)cc2)cc2c1nc(-c1ccc(S(C)(=O)=O)cc1)n2C [Example 397, 6-(4-((cis-5-isopropylhexahydropyrrolo[3,4-c]pyrrol-2(1H)-yl)methyl)phenyl)-1,4-dimethyl-2-(4-(methylsulfonyl)phenyl)-1H-benzo[d]imidazole] | 86 nM |  | 2600 nM |  | 86 nM | 
